Laboratory results from patent publication US20240101572A1, “DIHYDROOXADIAZINONE COMPOUND AND PHARMACEUTICAL USE THEREOF” (Japan Tobacco Inc., priority 2022, published 2024).
Read-outs that look alike come from different tables or passages of the source.

Columns and labels:
full-length human PLD1 = full-length human PLD1 (Homo sapiens (Human), UniProt Q13393); test: Evaluation of human PLD1 enzyme inhibitory activity (Amplex Red / choline oxidase fluorescence); assay type: biochemical
In short: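 N-terminally FLAG-tagged full-length human PLD1 (1-1036), expressed in Expi293F and FLAG-purified, incubated with compound (5% DMSO final) and 1,2-diheptanoyl-sn-glycero-3-phosphocholine for 60 min at room temperature in HEPES pH 7.5 buffer. Released choline detected by Amplex Red/choline oxidase/HRP fluorescence.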

full-length human PLD2 = full-length human PLD2 (Homo sapiens (Human), UniProt O14939); test: Evaluation of human PLD2 enzyme inhibitory activity (Amplex Red / choline oxidase fluorescence); assay type: biochemical
In short: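 Enzyme was N-terminal FLAG-tagged full-length human PLD2 (1-933), expressed in Expi293F cells and anti-FLAG purified. Compound (5% DMSO final) was incubated with enzyme (6 nmol/L solution) and 1,2-diheptanoyl-PC (6 mmol/L solution) in HEPES pH 7.5, KCl, EGTA, MgCl2, NP-40, BSA buffer for 60 min at room temperature. Choline was detected with Amplex Red/choline oxidase/HRP.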

[1] = full-length human PLD1 enzyme, read-out: PLD1 IC50
[2] = full-length human PLD2 enzyme, read-out: PLD2 IC50

Sequence of full-length human PLD2 (O14939 whole entry): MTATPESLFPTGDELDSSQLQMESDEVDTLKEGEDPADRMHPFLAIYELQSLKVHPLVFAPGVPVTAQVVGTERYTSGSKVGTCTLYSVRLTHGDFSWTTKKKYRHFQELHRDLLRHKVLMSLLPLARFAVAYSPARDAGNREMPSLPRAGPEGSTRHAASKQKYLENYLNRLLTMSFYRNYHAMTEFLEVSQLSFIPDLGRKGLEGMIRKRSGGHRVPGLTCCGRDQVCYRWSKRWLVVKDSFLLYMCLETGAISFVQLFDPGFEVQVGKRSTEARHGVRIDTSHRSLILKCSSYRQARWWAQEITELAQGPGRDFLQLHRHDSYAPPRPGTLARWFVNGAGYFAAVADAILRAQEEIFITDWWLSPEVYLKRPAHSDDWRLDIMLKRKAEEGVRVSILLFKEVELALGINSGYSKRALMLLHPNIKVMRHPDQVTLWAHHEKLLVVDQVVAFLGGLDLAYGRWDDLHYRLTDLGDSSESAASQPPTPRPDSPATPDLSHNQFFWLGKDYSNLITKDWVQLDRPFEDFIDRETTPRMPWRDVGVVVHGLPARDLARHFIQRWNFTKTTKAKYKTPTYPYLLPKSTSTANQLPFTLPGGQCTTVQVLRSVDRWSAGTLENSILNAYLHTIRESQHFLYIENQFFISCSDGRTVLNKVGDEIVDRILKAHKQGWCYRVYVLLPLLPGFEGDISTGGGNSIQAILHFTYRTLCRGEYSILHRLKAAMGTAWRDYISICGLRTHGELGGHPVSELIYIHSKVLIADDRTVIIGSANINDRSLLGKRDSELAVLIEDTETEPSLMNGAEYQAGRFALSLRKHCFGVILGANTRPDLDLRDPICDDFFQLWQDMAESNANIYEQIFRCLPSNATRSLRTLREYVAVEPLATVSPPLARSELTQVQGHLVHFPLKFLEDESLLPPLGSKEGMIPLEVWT
Sequence of full-length human PLD1 (Q13393 other isoform, or with tags, fused parts or gaps): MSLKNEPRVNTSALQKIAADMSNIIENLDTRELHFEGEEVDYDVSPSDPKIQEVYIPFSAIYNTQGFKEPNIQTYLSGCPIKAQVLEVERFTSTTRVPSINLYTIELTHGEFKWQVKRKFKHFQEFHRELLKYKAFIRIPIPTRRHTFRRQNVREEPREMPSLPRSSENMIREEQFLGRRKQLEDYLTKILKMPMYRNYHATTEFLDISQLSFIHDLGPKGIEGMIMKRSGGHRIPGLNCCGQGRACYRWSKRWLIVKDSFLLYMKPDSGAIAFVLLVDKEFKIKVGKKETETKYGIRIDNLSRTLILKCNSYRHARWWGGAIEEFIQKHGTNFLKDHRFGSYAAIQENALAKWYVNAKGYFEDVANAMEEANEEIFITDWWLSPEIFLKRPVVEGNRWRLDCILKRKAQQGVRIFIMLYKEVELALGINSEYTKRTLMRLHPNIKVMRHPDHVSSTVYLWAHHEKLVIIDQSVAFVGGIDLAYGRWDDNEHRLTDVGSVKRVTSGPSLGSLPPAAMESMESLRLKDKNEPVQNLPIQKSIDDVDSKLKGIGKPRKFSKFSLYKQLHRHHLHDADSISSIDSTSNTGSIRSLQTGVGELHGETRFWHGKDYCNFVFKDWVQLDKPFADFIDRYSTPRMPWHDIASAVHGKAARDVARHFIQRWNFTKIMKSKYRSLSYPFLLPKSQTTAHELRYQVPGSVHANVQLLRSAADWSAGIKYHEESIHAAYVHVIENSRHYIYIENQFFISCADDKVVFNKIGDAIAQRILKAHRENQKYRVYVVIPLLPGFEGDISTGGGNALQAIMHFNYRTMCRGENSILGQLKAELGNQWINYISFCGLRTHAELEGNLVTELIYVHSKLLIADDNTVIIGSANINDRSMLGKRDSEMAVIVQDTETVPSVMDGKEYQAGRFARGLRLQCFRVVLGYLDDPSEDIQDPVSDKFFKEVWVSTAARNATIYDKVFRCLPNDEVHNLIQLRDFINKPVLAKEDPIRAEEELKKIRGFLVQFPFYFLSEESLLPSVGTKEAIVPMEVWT

Structure (SMILES) | IC50 (full-length human PLD1; [1]) | IC50 (full-length human PLD2; [2]) | other results
CNC(=O)C(=O)N[C@@H](C)C[C@H]1CC[C@]2(CC1)OC(=O)NN=C2c1cc(C(=O)NC)ccc1Br [Example 2-035] | 0.021 µM | < 0.01 µM | –
CNC(=O)C(=O)N[C@@H](C)CN1CC[C@@]2(C[C@H]1C)OC(=O)NN=C2c1ccc(C#N)cc1Cl [Example 233] | 1.86 µM | 1.8 µM | –
C[C@H](O)C(=O)N[C@@H](C)C[C@H]1CC[C@]2(CC1)OC(=O)NN=C2c1ccc(F)cc1Br [Example 29] | 0.999 µM | 1.72 µM | –
C[C@@H](C[C@H]1CC[C@]2(CC1)OC(=O)NN=C2c1ccc(F)cc1Br)NC(=O)c1ccccc1 [Example 40] | 0.013 µM | < 0.01 µM | –
COc1ccc(C2=NNC(=O)O[C@]23CC[C@@H](C[C@H](C)NC(=O)c2cc(Cl)no2)CC3)c(Br)c1 [Example 59] | < 0.01 µM | < 0.01 µM | –
C[C@@H](C[C@H]1CC[C@]2(CC1)OC(=O)NN=C2c1cc(OCC(F)(F)F)ccc1Br)NC(=O)C(=O)NC1CC1 [Example 297] | 0.013 µM | < 0.01 µM | –
Cc1cc(C(=O)N[C@@H](C)C[C@H]2CC[C@]3(CC2)OC(=O)NN=C3c2ccc(F)cc2Br)[nH]n1 [Example 12] | < 0.01 µM | < 0.01 µM | –
C[C@@H](C[C@H]1CC[C@]2(CC1)OC(=O)NN=C2c1ccc(F)cc1Cl)NC(=O)c1cc2cc(F)ccc2o1 [Example 61] | 0.014 µM | 0.011 µM | –
COc1cc(C)c(C2=NNC(=O)O[C@]23CC[C@@H](C[C@H](C)NC(=O)N2CCn4c(nnc4C(F)(F)F)C2)CC3)cn1 [Example 259] | 1.45 µM | 2.5 µM | –
CNC(=O)C(=O)N[C@@H](C)C[C@H]1CC[C@]2(CC1)OC(=O)NN=C2c1cccnc1 [Example 17] | 0.816 µM | 1.04 µM | –
Cc1cc(C(=O)N[C@@H](C)C[C@H]2CC[C@]3(CC2)OC(=O)NN=C3c2ccc(C(=O)O)cc2C)[nH]n1 [Example 201] | 0.328 µM | 0.371 µM | –
[2H]C([2H])([2H])NC(=O)C(=O)N[C@@H](C)C[C@H]1CC[C@]2(CC1)OC(=O)NN=C2c1cc(C#N)ccc1Br [Example 2-073] | 0.014 µM | 0.002 µM | –
Cc1cc(C(=O)N[C@@H](C)C[C@H]2CC[C@]3(CC2)OC(=O)NN=C3c2cnc(N3C[C@@H]4C[C@H]3CO4)cc2Cl)[nH]n1 [Example 240] | 0.013 µM | < 0.01 µM | –
CNC(=O)C(=O)NCC[C@H]1CC[C@]2(CC1)OC(=O)NN=C2c1ccc(F)cc1Br [Example 47] | 0.119 µM | < 0.01 µM | –
CNC(=O)C(=O)N[C@@H](C)CN1CCC2(CC1)OC(=O)NN=C2c1cc(C#N)ccc1Cl [Example 2-006] | 0.056 µM | 0.011 µM | –
C[C@@H](C[C@H]1CC[C@]2(CC1)OC(=O)NN=C2c1cc(C#N)ccc1Br)NC(=O)C(=O)O [Example 2-171] | – | – | inhibition at 10 µM (full-length human PLD1; read-out: human PLD1 % inhibition at 10 μM): 12%; inhibition at 10 µM (full-length human PLD1; read-out: inhibition rate of PLD1 at 10 μM compound): 12%; inhibition at 10 µM (full-length human PLD2; read-out: human PLD2 % inhibition at 10 μM): 23%; inhibition at 10 µM (full-length human PLD2; read-out: inhibition rate of PLD2 at 10 μM compound): 23%
CNC(=O)C(=O)N[C@@H](C)CN1CCC2(CC1)OC(=O)NN=C2c1cc(C(=O)NC)ccc1Br [Example 2-037] | 0.043 µM | 0.013 µM | –
C[C@@H](C[C@H]1CC[C@]2(CC1)OC(=O)NN=C2c1cccc(C#N)c1Br)NC(=O)C(=O)NC1CC1 [Example 316] | 0.046 µM | 0.061 µM | –
C[C@@H](C[C@H]1CC[C@]2(CC1)OC(=O)NN=C2c1ccc(OC(F)(F)F)cc1Br)NC(=O)c1cc(Cl)no1 [Example 81] | 0.012 µM | < 0.01 µM | –
C[C@@H](C[C@H]1CC[C@]2(CC1)OC(=O)NN=C2c1ccc(S(C)(=O)=O)cc1Cl)NC(=O)c1cc2cc(F)ccc2o1 [Example 117] | 0.021 µM | 0.018 µM | –
C[C@@H](C[C@H]1CC[C@]2(CC1)OC(=O)NN=C2c1cc(C#N)ccc1Br)NC(=O)c1cnn(C)c1 [Example 325] | 0.015 µM | < 0.01 µM | –
CC(C)c1cc(F)ccc1C1=NNC(=O)O[C@]12CC[C@@H](C[C@H](C)NC(=O)c1cc(Cl)no1)CC2 [Example 134] | 0.021 µM | 0.03 µM | –
CNC(=O)N[C@@H](C)C[C@H]1CC[C@]2(CC1)OC(=O)NN=C2c1ccc(F)cc1I [Example 183] | 0.042 µM | 0.107 µM | –
C[C@@H](C[C@H]1CC[C@]2(CC1)OC(=O)NN=C2c1ccc(S(C)(=O)=O)cc1)NC(=O)c1cc2cc(F)ccc2[nH]1 [Example 8] | 0.03 µM | 0.01 µM | –
[2H]C([2H])([2H])NC(=O)C(=O)N[C@@H](C)C[C@]1(C#N)CC[C@@]2(CC1)OC(=O)NN=C2c1cccc(C(F)(F)F)c1Br [Example 2-118] | – | – | IC50 (full-length human PLD1; column 1 of continuation tables 2-12 to 2-14, read-out: human PLD1 enzyme inhibitory activity IC50): 0.019 µM; IC50 (full-length human PLD2; column 2 of continuation tables 2-12 to 2-14, read-out: human PLD2 enzyme inhibitory activity IC50): < 0.01 µM
